Measurements from article PMC11971087, “Unveiling the in vitro activity of extracted Euphorbia trigona via Supercritical Fluid Extraction against pathogenic yeasts, obesity, cancer, and its wound healing properties” (Bioresources and Bioprocessing, 2025).
Converted amounts (≈) assume the structure as drawn.

Target: T1, lipase
T1 construct: gene PNLIP; pig pancreas is only the usual preparation
Assay: 4-nitrophenyl butyrate hydrolysis, absorbance at […] nm
Format: biochemical
Settings: potassium phosphate pH 7.0, 37 °C, 10 min, standard drug, covalent

IC50: 6.4 µg/mL (≈ 12.9 µM)
SMILES: CCCCCCCCCCC[C@@H](C[C@@H]1OC(=O)[C@H]1CCCCCC)OC(=O)[C@H](CC(C)C)NC=O [Orlistat]
